In patent US7205298B2, “Substituted triazine kinase inhibitors” (Janssen Pharmaceutica N.V., priority 2002, dated 2007):

Experiments:
A375 melanoma xenograft = assay: In vivo inhibition of tumor growth, tumor growth delay method; conditions: for MDS to 2.0 g ± SEM (n): A375; for animals survived at day 57: group of six mice; for survival increase: vs control groups
Experimental: The in vivo effect of a compound on the growth of human tumor cells can be evaluated by implanting human tumor cells originating from a variety of different tumor types (such as A375 human melanoma cells) into the hindflank of athymic mice and administering a test compound to the mice.
Female nude mice were implanted subcutaneously with 1 mm^3 A375 melanoma fragments in the flank. Tumors were monitored twice weekly and then daily as the neoplasms reached the desired size range (about 75 mg). […] Estimated tumor weight was calculated using the formula (where w=width and l=length in mm of an A375 melanoma tumor): […]
All treatments were initiated on Day 1 and the study was terminated on Day 57.
The tumor growth delay (TGD) method was used in this study. In the TGD method, each animal was euthanized when its A375 neoplasm reached a size of 2.0 g. Mean Day of Survival (MDS) values were calculated for all groups. The treatment-effected mean “increase in survival” of various groups were compared to each other and to the mean survival times of mice receiving vehicle. The MDS values calculated for each group, based on the calculated day of death of each mouse, is given by the formula:
Time to exceed endpoint (observed)=number of days it takes for each tumor to grow past the endpoint (cut-off) size. Once the tumor reaches the cut-off size, the animal is euthanized. • D2=day animal is euthanized. • D1=last day of caliper measurement before tumor reaches the endpoint. • Wt2=tumor weight (mg) on D2 • Wt1=tumor weight (mg) on D1 • Endpoint weight=predetermined “cut-off” tumor size for the model being used.
Animals were weighed twice weekly during the study. Mice were examined frequently for clinical signs of any adverse, drug-related side effects. Acceptable toxicity for cancer drugs in mice is defined by the NCI as no mean group weight loss of over 20% during the test, and not more than one toxic death among ten treated animals.

PKC β-2 = biological target: T1, PKC β-2 (Homo sapiens, UniProt P05771); assay: Kinase selectivity assay PKC β-2; type: biochemical
T1 construct: purchased BIOMOL SE-143; host or cells: insect cells
T1 sequence (P05771 1-673 isoform P05771-2): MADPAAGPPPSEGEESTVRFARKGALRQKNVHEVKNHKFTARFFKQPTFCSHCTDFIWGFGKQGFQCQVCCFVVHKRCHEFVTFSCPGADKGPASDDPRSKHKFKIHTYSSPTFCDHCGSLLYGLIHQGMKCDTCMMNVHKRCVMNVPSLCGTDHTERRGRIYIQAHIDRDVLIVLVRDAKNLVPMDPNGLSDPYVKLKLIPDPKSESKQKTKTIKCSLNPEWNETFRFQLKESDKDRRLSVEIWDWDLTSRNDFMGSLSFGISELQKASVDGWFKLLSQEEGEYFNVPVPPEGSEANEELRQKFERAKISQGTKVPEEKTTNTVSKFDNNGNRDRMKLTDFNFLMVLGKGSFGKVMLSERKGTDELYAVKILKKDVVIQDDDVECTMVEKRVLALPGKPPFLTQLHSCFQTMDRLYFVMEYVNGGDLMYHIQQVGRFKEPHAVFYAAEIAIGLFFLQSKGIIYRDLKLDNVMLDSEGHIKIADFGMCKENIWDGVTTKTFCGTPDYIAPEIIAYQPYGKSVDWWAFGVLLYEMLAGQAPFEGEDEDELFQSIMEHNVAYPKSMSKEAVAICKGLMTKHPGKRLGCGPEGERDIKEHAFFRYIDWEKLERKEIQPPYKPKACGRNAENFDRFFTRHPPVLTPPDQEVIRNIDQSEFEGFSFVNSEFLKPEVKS
Experimental: Assays to test compound inhibition of other kinases were preformed using methods that measure the amount of phosphorylation of a biotinylated peptide substrate. Biotinylated peptide substrates were selected from the literature as appropriate for the enzyme being evaluated. The general procedure used to assay for kinase activity is as follows: a kinase reaction mix was prepared in 50 mM Tris-HCl pH=8, 10 mM MgCl2, 0.1 mM Na3VO4, 1 mM DTT, 10 μM ATP, 0.25–1 μM biotinylated peptide substrate, 0.2–0.8 μCuries per well ^33P-γ-ATP (2000–3000 Ci/mmol). Assay conditions vary slightly for each protein kinase, for example, insulin receptor kinase requires 10 mM MnCl2 for activity and Calmodulin-dependent protein kinase requires calmodulin and 2 mM CaCl2. The reaction mixture was dispensed into the wells of a streptavidin coated Flashplate and 1 μL test compound in 100% DMSO was added to a 100 μL reaction volume resulting in a final concentration of 1% DMSO in the reaction. Enzyme was diluted in 50 mM Tris-HCl pH=8.0, 0.1% BSA and added to each well. The reaction was incubated for one hour at 30° C. in the presence of a test compound. […] The plate was read on a scintillation counter to determine ^33P-γ-ATP incorporated into the immobilized peptide substrate. […] A maximum and minimum signal for the assay was determined on each plate. […]

SMILES: OCCCNc1cc(-c2ncnc(Nc3cccc(Cl)c3)n2)ccn1 [Compound 2, 3-((4-(4-((3-chlorophenyl)amino)-1,3,5-triazin-2-yl)-2-pyridinyl)amino)-1-propanol]
- surviving longer than the PEG vehicle control and Growth Control groups (A375 melanoma xenograft; 100 mg/kg): about 8 days
- Max % BW loss (day) (A375 melanoma xenograft; 100 mg/kg i.p. qd×32): −17.2% (33)
- MDS to 2.0 g ± SEM (n) (A375 melanoma xenograft; 100 mg/kg i.p. qd×32, female nude mice): 29.6 days
- MDS to 2.0 g ± SEM (n) (A375 melanoma xenograft; 100 mg/kg i.p. qd×32, female nude mice, listed as Cpd 2): 29.6 ± 3.1 (6) days
- animals survived at day 57 (A375 melanoma xenograft; 100 mg/kg): None
- survival increase (A375 melanoma xenograft; 100 mg/kg): about 37%
- surviving longer than the PEG vehicle control and Growth Control groups (A375 melanoma xenograft; 125 mg/kg): about 14 days
- Max % BW loss (day) (A375 melanoma xenograft; 125 mg/kg i.p. qd×32): −18.8% (29)
- MDS to 2.0 g ± SEM (n) (A375 melanoma xenograft; 125 mg/kg i.p. qd×32, female nude mice): 35.2 days
- MDS to 2.0 g ± SEM (n) (A375 melanoma xenograft; 125 mg/kg i.p. qd×32, female nude mice, listed as Cpd 2): 35.2 ± 3.6 (5) days
- animals survived at day 57 (A375 melanoma xenograft; 125 mg/kg): One out of six
- survival increase (A375 melanoma xenograft; 125 mg/kg): about 63%
- surviving longer than the PEG vehicle control and Growth Control groups (A375 melanoma xenograft; 150 mg/kg): about 12 days
- Max % BW loss (day) (A375 melanoma xenograft; 150 mg/kg i.p. qd×32): −17.6% (33)
- MDS to 2.0 g ± SEM (n) (A375 melanoma xenograft; 150 mg/kg i.p. qd×32, female nude mice): 33.6 days
- MDS to 2.0 g ± SEM (n) (A375 melanoma xenograft; 150 mg/kg i.p. qd×32, female nude mice, listed as Cpd 2): 33.6 ± 3.0 (4) days
- animals survived at day 57 (A375 melanoma xenograft; 150 mg/kg): One out of six
- survival increase (A375 melanoma xenograft; 150 mg/kg): about 55%
- NCI definition for acceptable toxicity of a cancer drug in mice (A375 melanoma xenograft; 150 and 125 mg/kg dose groups, no mean group weight loss over 20%, not more than one toxic death among ten): satisfied the NCI definition for acceptable toxicity
- efficacy against the A375 melanoma xenograft (A375 melanoma xenograft; high doses of 150 and 125 mg/kg compared): approximately equivalent efficacy

SMILES: OCCCNc1cncc(-c2ncnc(Nc3cccc(Cl)c3)n2)c1 [Compound 1, 3-((5-(4-((3-chlorophenyl)amino)-1,3,5-triazin-2-yl)-3-pyridinyl)amino)-1-propanol]
- IC50 (PKC β-2): > 100 µM
